{"source": "PubChem BioAssay (NCI)", "experiment_in_all_cases": "growth of human tumour cells (NCI), 48 h", "key": {"HOP-62 NSCLC": {"test_system": "HOP-62 NSCLC"}, "HT29 colon": {"test_system": "HT29 colon"}, "OVCAR-4 ovarian": {"test_system": "OVCAR-4 ovarian"}, "BT-549 breast": {"test_system": "BT-549 breast"}, "UO-31 renal": {"test_system": "UO-31 renal"}, "HCC-2998 colon": {"test_system": "HCC-2998 colon"}, "HCT-15 colon": {"test_system": "HCT-15 colon"}, "786-0 renal": {"test_system": "786-0 renal"}, "HOP-92 NSCLC": {"test_system": "HOP-92 NSCLC"}, "MOLT-4 leukemia": {"test_system": "MOLT-4 leukemia"}}, "note": "“And” between values parts separate entries of the source, which are not always exact repeats. Equal values may be shown once.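 In this assay, cells in 96-well plates receive the compound at five concentrations for 48 hours. Endpoints are linearly interpolated between the surrounding concentrations. GI50: concentration for 50% inhibition of growth. The concentration for full growth arrest is given as TGI.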"}
{"smiles": "Clc1ccc(COC(Cn2ccnc2)c2ccc(Cl)cc2Cl)cc1", "note": "(stereo not drawn)", "values": [{"measurement": "GI50", "setting": "HOP-62 NSCLC", "value": 3.02, "unit": "µM"}, {"measurement": "TGI", "setting": "HOP-62 NSCLC", "value": "13.6 µM and 26.8 µM and 35.6 µM"}, {"measurement": "GI50", "setting": "HT29 colon", "value": 1.95, "unit": "µM"}, {"measurement": "TGI", "setting": "HT29 colon", "value": "5.22 µM and 22.4 µM and 21.5 µM"}, {"measurement": "GI50", "setting": "OVCAR-4 ovarian", "value": 2.29, "unit": "µM"}, {"measurement": "TGI", "setting": "OVCAR-4 ovarian", "value": "13.6 µM and 27.7 µM and 24.5 µM"}, {"measurement": "GI50", "setting": "BT-549 breast", "value": 2.48, "unit": "µM"}, {"measurement": "TGI", "setting": "BT-549 breast", "value": "6.63 µM and 35.3 µM and 30.4 µM"}, {"measurement": "GI50", "setting": "UO-31 renal", "value": 1.44, "unit": "µM"}, {"measurement": "TGI", "setting": "UO-31 renal", "value": "5.91 µM and 17.4 µM and 14.6 µM"}, {"measurement": "GI50", "setting": "HCC-2998 colon", "value": 2.72, "unit": "µM"}, {"measurement": "TGI", "setting": "HCC-2998 colon", "value": "10.5 µM and 29.6 µM and 30 µM"}, {"measurement": "GI50", "setting": "HCT-15 colon", "value": 3.24, "unit": "µM"}, {"measurement": "TGI", "setting": "HCT-15 colon", "value": "12.7 µM and 27.5 µM"}, {"measurement": "GI50", "setting": "786-0 renal", "value": 1.88, "unit": "µM"}, {"measurement": "TGI", "setting": "786-0 renal", "value": "4.01 µM and 25.8 µM and 26.3 µM"}, {"measurement": "GI50", "setting": "HOP-92 NSCLC", "value": 0.511, "unit": "µM"}, {"measurement": "TGI", "setting": "HOP-92 NSCLC", "value": "3.42 µM and 24.1 µM and 25.2 µM"}, {"measurement": "GI50", "setting": "MOLT-4 leukemia", "value": 2.03, "unit": "µM"}, {"measurement": "TGI", "setting": "MOLT-4 leukemia", "value": "5.89 µM and 20.7 µM and 18.1 µM"}]}
{"smiles": "CSc1ccc(/C=C2\\CNC/C(=C\\c3ccc(SC)cc3)C2=O)cc1", "values": [{"measurement": "GI50", "setting": "HOP-62 NSCLC", "value": "14 µM and 50.2 µg/mL"}, {"measurement": "TGI", "setting": "HOP-62 NSCLC", "value": "59.3 µM and 131 µg/mL"}, {"measurement": "GI50", "setting": "HT29 colon", "value": 150, "unit": "µg/mL"}, {"measurement": "TGI", "setting": "HT29 colon", "value": "> 117 µM and 150 µg/mL"}, {"measurement": "GI50", "setting": "OVCAR-4 ovarian", "value": "> 371 µM and 18.7 µg/mL"}, {"measurement": "TGI", "setting": "OVCAR-4 ovarian", "value": "> 371 µM and 28.7 µg/mL"}, {"measurement": "TGI", "setting": "BT-549 breast", "value": "> 371", "unit": "µM"}, {"measurement": "GI50", "setting": "UO-31 renal", "value": 150, "unit": "µg/mL"}, {"measurement": "TGI", "setting": "UO-31 renal", "value": "> 371 µM and 150 µg/mL"}, {"measurement": "GI50", "setting": "HCC-2998 colon", "value": "> 371 µM and 150 µg/mL"}, {"measurement": "TGI", "setting": "HCC-2998 colon", "value": "> 371 µM and 150 µg/mL"}, {"measurement": "GI50", "setting": "HCT-15 colon", "value": 112, "unit": "µg/mL"}, {"measurement": "TGI", "setting": "HCT-15 colon", "value": "> 371 µM and 150 µg/mL"}, {"measurement": "TGI", "setting": "786-0 renal", "value": 153, "unit": "µM"}, {"measurement": "GI50", "setting": "HOP-92 NSCLC", "value": "31.9 µM and 27 µg/mL"}, {"measurement": "TGI", "setting": "HOP-92 NSCLC", "value": "233 µM and 83.2 µg/mL"}, {"measurement": "GI50", "setting": "MOLT-4 leukemia", "value": 150, "unit": "µg/mL"}, {"measurement": "TGI", "setting": "MOLT-4 leukemia", "value": "> 371 µM and 150 µg/mL"}]}
{"smiles": "O=C(Nc1ccc(OC(F)(F)F)cc1)c1sccc1NCc1ccnc2ccccc12", "values": [{"measurement": "GI50", "setting": "HOP-62 NSCLC", "value": 9.55, "unit": "µM"}, {"measurement": "TGI", "setting": "HOP-62 NSCLC", "value": "> 100", "unit": "µM"}, {"measurement": "GI50", "setting": "HT29 colon", "value": 3.36, "unit": "µM"}, {"measurement": "TGI", "setting": "HT29 colon", "value": "> 100", "unit": "µM"}, {"measurement": "GI50", "setting": "OVCAR-4 ovarian", "value": 4.57, "unit": "µM"}, {"measurement": "TGI", "setting": "OVCAR-4 ovarian", "value": "> 100", "unit": "µM"}, {"measurement": "GI50", "setting": "BT-549 breast", "value": 6.9, "unit": "µM"}, {"measurement": "TGI", "setting": "BT-549 breast", "value": 51.5, "unit": "µM"}, {"measurement": "GI50", "setting": "UO-31 renal", "value": 2.34, "unit": "µM"}, {"measurement": "TGI", "setting": "UO-31 renal", "value": 26.1, "unit": "µM"}, {"measurement": "GI50", "setting": "HCC-2998 colon", "value": 4.82, "unit": "µM"}, {"measurement": "TGI", "setting": "HCC-2998 colon", "value": "> 100", "unit": "µM"}, {"measurement": "GI50", "setting": "HCT-15 colon", "value": 3.22, "unit": "µM"}, {"measurement": "TGI", "setting": "HCT-15 colon", "value": "> 66.7", "unit": "µM"}, {"measurement": "GI50", "setting": "786-0 renal", "value": 7.53, "unit": "µM"}, {"measurement": "TGI", "setting": "786-0 renal", "value": "> 88.1", "unit": "µM"}, {"measurement": "GI50", "setting": "HOP-92 NSCLC", "value": 2.5, "unit": "µM"}, {"measurement": "TGI", "setting": "HOP-92 NSCLC", "value": 19, "unit": "µM"}, {"measurement": "GI50", "setting": "MOLT-4 leukemia", "value": 3.09, "unit": "µM"}, {"measurement": "TGI", "setting": "MOLT-4 leukemia", "value": "> 31.6", "unit": "µM"}]}
{"smiles": "CCOC(=O)c1c(NC(=O)c2ccc(C(C)C)cc2)sc2c(CN(C)C)c(O)ccc12", "values": [{"measurement": "GI50", "setting": "HOP-62 NSCLC", "value": 2.2, "unit": "µM"}, {"measurement": "TGI", "setting": "HOP-62 NSCLC", "value": 5.89, "unit": "µM"}, {"measurement": "GI50", "setting": "HT29 colon", "value": 3.26, "unit": "µM"}, {"measurement": "TGI", "setting": "HT29 colon", "value": 14.1, "unit": "µM"}, {"measurement": "GI50", "setting": "OVCAR-4 ovarian", "value": 3.7, "unit": "µM"}, {"measurement": "TGI", "setting": "OVCAR-4 ovarian", "value": 13.3, "unit": "µM"}, {"measurement": "GI50", "setting": "BT-549 breast", "value": 2.18, "unit": "µM"}, {"measurement": "TGI", "setting": "BT-549 breast", "value": 5.35, "unit": "µM"}, {"measurement": "GI50", "setting": "UO-31 renal", "value": 1.46, "unit": "µM"}, {"measurement": "TGI", "setting": "UO-31 renal", "value": 2.82, "unit": "µM"}, {"measurement": "GI50", "setting": "HCC-2998 colon", "value": 1.88, "unit": "µM"}, {"measurement": "TGI", "setting": "HCC-2998 colon", "value": 3.51, "unit": "µM"}, {"measurement": "GI50", "setting": "HCT-15 colon", "value": 1.17, "unit": "µM"}, {"measurement": "TGI", "setting": "HCT-15 colon", "value": 2.74, "unit": "µM"}, {"measurement": "GI50", "setting": "786-0 renal", "value": 1.79, "unit": "µM"}, {"measurement": "TGI", "setting": "786-0 renal", "value": 3.36, "unit": "µM"}, {"measurement": "GI50", "setting": "HOP-92 NSCLC", "value": 1.44, "unit": "µM"}, {"measurement": "TGI", "setting": "HOP-92 NSCLC", "value": 3.1, "unit": "µM"}, {"measurement": "GI50", "setting": "MOLT-4 leukemia", "value": 2.05, "unit": "µM"}, {"measurement": "TGI", "setting": "MOLT-4 leukemia", "value": 4.92, "unit": "µM"}]}
{"smiles": "Fc1cccc(COc2ccc(Nc3ncnc4sc(-c5ccco5)cc34)cc2Cl)c1", "values": [{"measurement": "GI50", "setting": "HOP-62 NSCLC", "value": "> 25", "unit": "µM"}, {"measurement": "TGI", "setting": "HOP-62 NSCLC", "value": "> 25", "unit": "µM"}, {"measurement": "GI50", "setting": "HT29 colon", "value": "> 25", "unit": "µM"}, {"measurement": "TGI", "setting": "HT29 colon", "value": "> 25", "unit": "µM"}, {"measurement": "GI50", "setting": "OVCAR-4 ovarian", "value": "> 25", "unit": "µM"}, {"measurement": "TGI", "setting": "OVCAR-4 ovarian", "value": "> 25", "unit": "µM"}, {"measurement": "GI50", "setting": "BT-549 breast", "value": "> 25", "unit": "µM"}, {"measurement": "TGI", "setting": "BT-549 breast", "value": "> 25", "unit": "µM"}, {"measurement": "GI50", "setting": "UO-31 renal", "value": "> 25", "unit": "µM"}, {"measurement": "TGI", "setting": "UO-31 renal", "value": "> 25", "unit": "µM"}, {"measurement": "GI50", "setting": "HCC-2998 colon", "value": "> 25", "unit": "µM"}, {"measurement": "TGI", "setting": "HCC-2998 colon", "value": "> 25", "unit": "µM"}, {"measurement": "GI50", "setting": "HCT-15 colon", "value": "> 25", "unit": "µM"}, {"measurement": "TGI", "setting": "HCT-15 colon", "value": "> 25", "unit": "µM"}, {"measurement": "GI50", "setting": "786-0 renal", "value": "> 25", "unit": "µM"}, {"measurement": "TGI", "setting": "786-0 renal", "value": "> 25", "unit": "µM"}, {"measurement": "GI50", "setting": "HOP-92 NSCLC", "value": "> 25", "unit": "µM"}, {"measurement": "TGI", "setting": "HOP-92 NSCLC", "value": "> 25", "unit": "µM"}, {"measurement": "GI50", "setting": "MOLT-4 leukemia", "value": "> 25", "unit": "µM"}, {"measurement": "TGI", "setting": "MOLT-4 leukemia", "value": "> 25", "unit": "µM"}]}
{"smiles": "CC1(C)O[C@H]2OC3CCC(=O)CC3(O)[C@H]2O1", "note": "(stereo partly drawn)", "values": [{"measurement": "TGI", "setting": "HOP-62 NSCLC", "value": "> 100", "unit": "µM"}, {"measurement": "TGI", "setting": "HT29 colon", "value": "> 100", "unit": "µM"}, {"measurement": "TGI", "setting": "OVCAR-4 ovarian", "value": "> 100", "unit": "µM"}, {"measurement": "TGI", "setting": "BT-549 breast", "value": "> 100", "unit": "µM"}, {"measurement": "TGI", "setting": "UO-31 renal", "value": "> 100", "unit": "µM"}, {"measurement": "TGI", "setting": "HCC-2998 colon", "value": "> 100", "unit": "µM"}, {"measurement": "TGI", "setting": "HCT-15 colon", "value": "> 100", "unit": "µM"}, {"measurement": "TGI", "setting": "786-0 renal", "value": "> 100", "unit": "µM"}, {"measurement": "TGI", "setting": "HOP-92 NSCLC", "value": "> 100", "unit": "µM"}, {"measurement": "TGI", "setting": "MOLT-4 leukemia", "value": "> 100", "unit": "µM"}]}
